Where two headings read alike, the source gives them in different places.
Key:
glioblastoma = conditions: cited from earlier work
[1] = Safety and tolerability in mice; design: species or system Swiss nude mice; conditions: mouse, in vivo
Experimental: The dose used for temozolomide was 30 mg/kg (i.p administration) and 50 mg/kg (oral administration), as the upper threshold tolerated by animals. The treatment started 21 days after U87 cell implantation.
To understand the drug effect: At 21 days post-tumor cell injection, mice were randomly divided into six groups and treated intraperitoneally for two cycles of five consecutive days. […] Similarly, to the safety evaluation test, all animals were closely observed during the immediate post injection period. Mice physical appearance (body weight and coat condition), body function (food intake), presence of loose stools, diarrhea or blood in diarrhea and behavior (handling, aggression, abnormal gait and posture and reluctance to move) were also monitored throughout the study. Pre-determined human endpoints for animal euthanasia were also established, specifically, a weight loss greater than 20% of initial body weight, a temperature drop (<35° C.), and a tumor size higher than 50 mm^3.

U87 cells = assay: Resazurin cytotoxicity assay in U87 / glioma cells; format: cell-based, human; conditions: for IC50: all glioma cells, 24 hours and 72 hours
Experimental: In vitro toxicity studies were performed as described in Example 4. To assess the potential cytotoxicity of both loaded and unloaded NPs, the resazurin assay was conducted in HBMEC and U87 cells. The sensitivity of GB cells to free CXB and TMZ was assessed following a treatment with a drug solution in the range 7-1700 μM and 5-2500 μM, respectively.
The cytotoxicity effect of AuNRs^c(RGDfK) and HNPs/HNPs^Tf against U87 cells. Regarding cell viability, the U87 cells were cultured in DMEM/F-12 medium, supplemented with 10% (v/v) FBS, 1% (v/v) penicillin-streptomycin solution and sodium bicarbonate. U87 were maintained at 37° C. in a humidified atmosphere containing CO2 (5%). The resazurin assay was used to determine the cytotoxicity of CXB, AuNRs^c(RGDfK) and HNPs. Briefly, 2000 cells per well were seeded in a 96 well plate and incubated for 24 hours or 72 hours after the medium was replaced with increasing concentrations of CXB or AuNRs^c(RGDfK) or HNPs/HNPS^Tf. Subsequently, the medium was removed, and the cell viability determined. For this purpose, 100 μl of 10% (w/v) resazurin solution in DMEM/F 12 was added to the cells and incubated for approximately 2 hours, at 37° C. The enzymatic reduction of resazurin to resorufin was analyzed by UV/Vis spectrophotometry at 570 nm and 600 nm. Cell viability was assessed as described above.

[2] = tested on: orthotopic U87 human GB tumor; assay: In vivo antitumor efficacy in orthotopic U87 glioblastoma model; design: species or system human tumor in Swiss nude mice
Experimental: Regarding orthotopic U87 human GB tumor model, before the surgical procedure, fourteen nude mice were weighted, given buprenorphine (0.1 mg/Kg) intraperitoneally and placed on a stereotactic frame. To maintain anesthesia and sedation, the mice were anesthetized for 30 min with 4% isoflurane gas, mixed with medical oxygen at a rate of 1 L/min. Vital signs such as respiratory frequency and body temperature were monitored continuously. After the identification of the injection site, at the Cartesian coordinates (x, y, z)=(2.1, 0.5, −3) in relation to bregma, approximately 36 000 U87 cells were injected in the striatum of the frontal cortex of the right hemisphere of the brain, using a Hamilton syringe. In every mouse, the presence, location and volume of the tumors were assessed by Magnetic Resonance Imaging (MRI) weekly. MRI was performed using a 9.4T Bruker BioSpec 94/20USR system (Bruker, Germany) after anesthetizing mice with isoflurane (1 L/min, induction: 4% isoflurane; maintenance: 2% isoflurane). Vital signs, in particular, respiratory frequency and body temperature, were monitored continuously. For structural analysis, T2-weighted images were acquired in sagittal, coronal and axial planes, using a rapid acquisition with relaxation enhancement sequence (T2 Turbo RARE). Tumor images were manually segmented in the 3D Slicer software for 3D reconstruction, in order to calculate tumor volume.
Similarly, to the safety evaluation test, all animals were closely observed during the immediate post injection period. Mice physical appearance (body weight and coat condition), body function (food intake), presence of loose stools, diarrhea or blood in diarrhea and behavior (handling, aggression, abnormal gait and posture and reluctance to move) were also monitored throughout the study. Pre-determined human endpoints for animal euthanasia were also established, specifically, a weight loss greater than 20% of initial body weight, a temperature drop (<35° C.), and a tumor size higher than 50 mm^3. […]
The tumor growth delayed (TGD), which concerns the evaluation of tumor treatment modalities, was calculated according to
where, Dtreatment and Dcontrol correspond to the average doubling times of the treated and control tumors, respectively.
The tumor growth inhibition (TGI), which measures the tumor size between treated and control groups at specific time points was calculated according to
[formula] • where ΔT (=T−T0) represents the change in tumor size (volume) for the treated animals, while ΔC(=C−C0) represents the change in tumor size (volume) for the control animals. By comparing these values, the degree of tumor growth inhibition can be determined.

[3] = Serum biomarkers for toxicity evaluation in glioblastoma-bearing mice; format: in vivo, Swiss nude mice; conditions: free drug in solution
Experimental: After reaching the endpoint, animals were euthanized. Whole blood samples were collected from mice immediately to heparinized tubes. The supernatant (serum) of blood obtained after centrifugation (2880×g for 10 min at 4° C.) was used to determine the levels of physiological biomarkers such as aspartate aminotransferase (AST), alanine aminotransferase (ALT), alkaline phosphatase (ALP), gamma glutamyl transpeptidase (GGT), creatinine kinase (CK), and urea (U) to investigate the effects of drug, nanoparticles and photothermal treatment.

[4] = Pharmacokinetics and biodistribution in mice after i.p. administration; format: in vivo, Swiss nude mice; design: AUCinf: concentration or dose not given beside the values
Experimental: Adult male and female Swiss Nu/Nu and Swiss Nu/+ mice, aged between 10-14 weeks and weighting 22-30 g, were purchased from Charles River Laboratories (Lyon, France) and maintained in local animal facilities under controlled conditions (12 hours light/dark cycle, at 20±2° C. and 50±5% of relative humidity), with free access to standard diet and water. All animal experiments were conducted in agreement with the international regulations of the European Union.
A solution containing CXB in PEG 400: NaCl 0.9% (pH=7.4) (2:1, V/V) was used as control. Thereafter, mice were sacrificed by decapitation at predetermined post-dosing time points. Blood samples were collected to heparinised tubes and centrifuged at 2880 g for 10 min at 4° C. Plasma supernatant was collected and frozen at −80° C. until analysis. […] Brain and liver tissues were homogenized with an H2O-acetonitrile (1:1, V/V) solution (4 mL per g of tissue) using a Thomas® Teflon pestle tissue homogenizer and centrifuged at 4 150 g for 15 min at 4° C. In parallel, spleen tissues were homogenized with 1 ml of the same solution using a high-speed stirrer (Ultra-Turrax X1020, Ystral GmbH, Dottingen, Germany) and then, centrifuged at 12 045 g for 5 min at 4° C. All supernatants were collected and stored at −80° C. until analysis using a previously validated HPLC method. […]

[5] = i.p., no irradiation (TMZ 30 mg/kg, CXB 5 mg/kg, nanoparticles 20 mg/kg)
[6] = i.p., no irradiation (TMZ 30 mg/kg, CXB 5 mg/kg, nanoparticles 20 mg/kg), listed as temozolomide
[7] = oral, 50 mg/kg, listed as temozolomide
[8] = celecoxib, i.p. mice, plasma, 20 mg/kg
[9] = mouse, ip, 20 mg/kg, celecoxib, i.p. mice, brain
[10] = mouse, ip, 20 mg/kg, celecoxib, i.p. mice, kidney
[11] = mouse, ip, 20 mg/kg, celecoxib, i.p. mice, liver
[12] = mouse, ip, 20 mg/kg, celecoxib, i.p. mice, plasma
[13] = mouse, ip, 20 mg/kg, celecoxib, i.p. mice, spleen

Cn1nnc2c(C(N)=O)ncn2c1=O [TMZ, temozolomide]
median OS (glioblastoma; combination with radiotherapy vs. 12.1 months radiotherapy alone, P<0.001): 14.6 months | median survival time in patients (glioblastoma; comparative studies of several chemotherapeutic agents, in words): highest median survival time in patients | MTD ([1]; ip, i.p. administration, read-out: upper threshold dose tolerated by animals): 30 mg/kg | MTD ([1]; oral administration, read-out: upper threshold dose tolerated by animals): 50 mg/kg | IC50 (U87 cells; Homo sapiens, U-87 MG, free TMZ): 800 µM | animals that survived and prevented tumor recurrence ([2]; i.p. 30 mg/kg, out of 6 animals, 91 days): 4 | % Tumor Growth Delay [2, 5]: 75 ± 21% | % Tumor Growth Inhibition [2, 5]: 66 ± 33% | Median survival [2, 5]: 91 days | Survivals at 56 days [2, 5]: 6/6 | Survivals at 91 days [2, 5]: 4/6 | % Tumor Growth Delay [2, 6]: 75% | % Tumor Growth Inhibition [2, 6]: 66% | % Tumor Growth Delay ([2]; oral, 50 mg/kg): 54 ± 11% | % Tumor Growth Inhibition ([2]; oral, 50 mg/kg): 42 ± 14% | Median survival ([2]; oral, 50 mg/kg): 70 days | Survivals at 56 days ([2]; oral, 50 mg/kg): 1/6 | Survivals at 91 days ([2]; oral, 50 mg/kg): 1/6 | animals that survived without tumor recurrence ([2]; oral, 50 mg/kg): only one animal survived | mean survival time (MST) ([2]; oral, 50 mg/kg): 70 days | % Tumor Growth Delay [2, 7]: 54% | % Tumor Growth Inhibition [2, 7]: 42% | CK increase over saline group [3]: 1.32 fold

Cc1ccc(-c2cc(C(F)(F)F)nn2-c2ccc(S(N)(=O)=O)cc2)cc1 [CXB, celecoxib]
MTD ([1]; ip, celecoxib in solution, i.p., read-out: dose above which toxicity was exhibited): > 5 mg/kg | effect on cellular proliferation (U87 cells; free CXB, after 24 hours and 72 hours): able to impair cellular proliferation | IC50 (U87 cells; free CXB): < 400 µM | AUC0-last ([4]; celecoxib, i.p. mice, brain): 36.7 µg·h/g | AUCextrap ([4]; celecoxib, i.p. mice, brain): 7.08% | AUCinf ([4]; celecoxib, i.p. mice, brain): 39.5 µg·h/g | AUC0-last ([4]; celecoxib, i.p. mice, kidney): 35.3 µg·h/g | AUCextrap ([4]; celecoxib, i.p. mice, kidney): 16.3% | AUCinf ([4]; celecoxib, i.p. mice, kidney): 42.2 µg·h/g | AUC0-last ([4]; celecoxib, i.p. mice, liver): 27.7 µg·h/g | AUCextrap ([4]; celecoxib, i.p. mice, liver): 30.4% | AUCinf ([4]; celecoxib, i.p. mice, liver): 39.8 µg·h/g | AUCextrap ([4]; celecoxib, i.p. mice, plasma): 13.0% | AUC0-last [4, 8]: 28100 ng·h/mL | Cmax [4, 8]: 9100 ng/mL | AUC0-last ([4]; celecoxib, i.p. mice, spleen): 73.2 µg·h/g | AUCextrap ([4]; celecoxib, i.p. mice, spleen): 42.0% | AUCinf ([4]; celecoxib, i.p. mice, spleen): 126.2 µg·h/g | Cmax ([4]; mouse, brain, ip, 20 mg/kg, celecoxib, i.p. mice, brain, read-out: Cmax): 20600 ng/g | AUC(0-t) ([4]; mouse, ip, 20 mg/kg, plasma): 28100 ng·h/mL | MRT [4, 9]: 2 h | Tmax [4, 9]: 1 h | half-life [4, 9]: 1.4 h | MRT [4, 10]: 3.05 h | Tmax [4, 10]: 2 h | half-life [4, 10]: 2 h | MRT [4, 11]: 4.6 h | Tmax [4, 11]: 0.5 h | half-life [4, 11]: 2.8 h | AUC(0-inf) [4, 12]: 32300 ng·h/mL | MRT [4, 12]: 2.9 h | Tmax [4, 12]: 1 h | half-life [4, 12]: 1.9 h | MRT [4, 13]: 6.47 h | Tmax [4, 13]: 1 h | half-life [4, 13]: 4.07 h | Cmax ([4]; mouse, kidney, ip, 20 mg/kg, celecoxib, i.p. mice, kidney, read-out: Cmax): 15600 ng/g | Cmax ([4]; mouse, liver, ip, 20 mg/kg, celecoxib, i.p. mice, liver, read-out: Cmax): 10600 ng/g | Cmax ([4]; mouse, plasma, ip, 20 mg/kg, celecoxib, i.p. mice, plasma, read-out: Cmax): 9090 ng/mL | Cmax ([4]; mouse, spleen, ip, 20 mg/kg, celecoxib, i.p. mice, spleen, read-out: Cmax): 22400 ng/g | mean survival time (MST) ([2]; i.p., no irradiation (CXB 5 mg/kg, nanoparticles 20 mg/kg)): 48 days | % Tumor Growth Delay [2, 5]: 15 ± 5% | % Tumor Growth Inhibition [2, 5]: 13 ± 6% | Median survival [2, 5]: 48 days | Survivals at 56 days [2, 5]: 1/6 | Survivals at 91 days [2, 5]: 0/6 | inhibition of growth of GB cells in vivo ([2]; i.p., in words): the effect was not significant | CK increase over saline group [3]: 1.17 fold
